Laboratory results from patent US20050164196A1, “Methods to predict patient responsiveness to tyrosine kinase inhibitors” (priority 2002, published 2005).
Several values for one entry are separate records, joined by “and”; a condition that tells them apart may be missing. Equal entries are not always repeated. Structures can show the parent of a compound that is named as a salt. Where two headings read alike, the source gives them in different places.

Key:
CML = conditions: cited from earlier work
[1] = rs2290573 CC genotype, n = 26, 18-month data, ITT principle
[2] = rs2290573 CT, TT genotype, n = 79, 18-month data, ITT principle
[3] = of 54 CML patients treated with 300 mg or more

Cc1ccc(NC(=O)c2ccc(CN3CCN(C)CC3)cc2)cc1Nc1nccc(-c2cccnc2)n1 [Imatinib, Imatinib mesylate]
events of progression (Ph+ CML; genotyped patients of the Imatinib arm, 18-month data, ITT principle): 10 events | TTP (months) (Ph+ CML; individual patients with disease progression among the 105 analyzed patients, 18-month data, one line per patient, listed as STI571): 16.1 months and 16.3 months and 11.8 months and 17.0 months and 13.4 months and 16.4 months and 9.7 months and 15.8 months and 5.6 months and 6.8 months | individuals who exhibited disease progression (Ph+ CML; out of the entire 553 treated patients, 12-month data): 24 individuals | patients who experienced progression events (Ph+ CML; rs2290573 CC genotype, 26 patients, 18-month data): 23.1% | Death (as primary reason for discontinuation) (Ph+ CML; [1]): 0 (0) n (%) | Increase in WBC (approved by SMC) (Ph+ CML; [1]): 1 (3.8) n (%) | Loss of CHR (Ph+ CML; [1]): 1 (3.8) n (%) | Loss of MCyR (Ph+ CML; [1]): 4 (15.4) n (%) | Progression to AP or BC (Ph+ CML; [1]): 0 (0) n (%) | Total number of patients with events (progression) (Ph+ CML; [1]): 6 (23.1) n (%) | patients who experienced progression events (Ph+ CML; rs2290573 CT or TT genotype, 79 patients, 18-month data): 5.1% | Death (as primary reason for discontinuation) (Ph+ CML; [2]): 0 (0) n (%) | Increase in WBC (approved by SMC) (Ph+ CML; [2]): 0 (0) n (%) | Loss of CHR (Ph+ CML; [2]): 2 (2.5) n (%) | Loss of MCyR (Ph+ CML; [2]): 0 (0) n (%) | Progression to AP or BC (Ph+ CML; [2]): 2 (2.5) n (%) | Total number of patients with events (progression) (Ph+ CML; [2]): 4 (5.1) n (%) | major responses (0-35% of cells in metaphase positive for the Ph′ chromosome) (CML; % of the 54 patients who received 300 mg or more): 31% | complete cytogenetic remission (CCR) (CML; [3]): 7 patients | complete hematologic responses (CHR) (CML; [3]): 53 patients | cytogenic responses (CML; [3]): 29 patients | major responses (0-35% of cells in metaphase positive for the Ph′ chromosome) (CML; [3]): 17 patients
